The test addresses T1, hTLR9 (Homo sapiens, UniProt Q9NR96).
T1 sequence (Q9NR96 26-1032): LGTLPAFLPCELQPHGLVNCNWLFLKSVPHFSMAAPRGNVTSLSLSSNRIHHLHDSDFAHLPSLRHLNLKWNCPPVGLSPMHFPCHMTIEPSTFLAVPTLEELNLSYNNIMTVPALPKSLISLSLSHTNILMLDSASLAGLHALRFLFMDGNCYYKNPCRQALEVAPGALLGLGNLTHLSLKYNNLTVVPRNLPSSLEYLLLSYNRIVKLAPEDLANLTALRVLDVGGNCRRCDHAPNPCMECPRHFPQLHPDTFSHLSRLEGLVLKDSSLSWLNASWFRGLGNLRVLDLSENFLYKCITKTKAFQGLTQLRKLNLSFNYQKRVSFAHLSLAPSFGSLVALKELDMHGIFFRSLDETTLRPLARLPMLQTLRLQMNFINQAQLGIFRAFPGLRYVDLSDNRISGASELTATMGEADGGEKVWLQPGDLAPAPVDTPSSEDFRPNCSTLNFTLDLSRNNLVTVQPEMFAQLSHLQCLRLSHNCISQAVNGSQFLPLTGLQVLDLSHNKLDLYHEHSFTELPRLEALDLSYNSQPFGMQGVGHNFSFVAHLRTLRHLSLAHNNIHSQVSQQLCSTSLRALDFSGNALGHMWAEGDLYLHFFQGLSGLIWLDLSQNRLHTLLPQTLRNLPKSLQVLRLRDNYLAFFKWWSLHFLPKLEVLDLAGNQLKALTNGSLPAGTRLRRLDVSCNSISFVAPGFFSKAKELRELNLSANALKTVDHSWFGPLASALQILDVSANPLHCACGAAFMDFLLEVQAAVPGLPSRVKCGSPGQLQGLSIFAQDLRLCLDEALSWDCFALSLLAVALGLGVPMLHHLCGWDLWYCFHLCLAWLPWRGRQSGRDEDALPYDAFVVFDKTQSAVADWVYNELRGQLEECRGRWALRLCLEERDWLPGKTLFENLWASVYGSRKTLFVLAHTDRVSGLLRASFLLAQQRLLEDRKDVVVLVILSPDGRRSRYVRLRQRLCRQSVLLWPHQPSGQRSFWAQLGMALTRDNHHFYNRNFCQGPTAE
The experiment in a line: HEK293-Blue-hTLR-9 cells assay (SEAP reporter, ODN2006 stimulation). Type of test: cell-based. More on the design: host or cells: HEK293 (HEK-Blue hTLR9). The conditions noted are these: HEK293-Blue-hTLR9 cells, ODN2006, 20 hrs; read-out: HEK/hTLR9 IC50. The source says:
HEK293-Blue-hTLR-9 Cells Assay:
A stable HEK293-Blue-hTLR-9 cell line was purchased from InvivoGen (Cat. #: hkb-htlr9, San Diego, Calif., USA). These cells were originally designed for studying the stimulation of human TLR9 by monitoring the activation of NF-κB. A SEAP (secreted embryonic alkaline phosphatase) reporter gene was placed under the control of the IFN-β minimal promoter fused to five NF-κB and AP-1-binding sites. The SEAP was induced by activating NF-κB and AP-1 via stimulating HEK-Blue hTLR9 cells with TLR9 ligands. Therefore the reporter expression was declined by TLR9 antagonist under the stimulation of a ligand, such as ODN2006 (Cat. #: tlrl-2006-1, Invivogen, San Diego, Calif., USA), for incubation of 20 hrs. The cell culture supernatant SEAP reporter activity was determined using QUANTI-Blue™ kit (Cat. #: rep-qb1, Invivogen, San Diego, Calif., USA) at a wavelength of 640 nm, a detection medium that turns purple or blue in the presence of alkaline phosphatase.
HEK293-Blue-hTLR9 cells were incubated at a density of 250,000˜450,000 cells/mL in a volume of 170 μL in a 96-well plate in Dulbecco's Modified Eagle's medium (DMEM) containing 4.5 g/L glucose, 50 U/mL penicillin, […], 2 mM L-glutamine, 10% (v/v) heat-inactivated fetal bovine serum with addition of 20 μL test compound in a serial dilution in the presence of final DMSO at 1% and 10 μL of 20 uM ODN2006 in above DMEM, perform incubation under 37° C. in a CO2 incubator for 20 hrs. Then 20 μL of the supernatant from each well was incubated with 180 μL Quanti-blue substrate solution at 37° C. for 2 h and the absorbance was read at 620-655 nm using a spectrophotometer. The signaling pathway that TLR9 activation leads to downstream NF-κB activation has been widely accepted, and therefore similar reporter assay was modified for evaluating TLR9 antagonist.
For the compound `Cc1cc(N2C[C@@H](N)[C@@H](F)C2)nc(N2CCN(C[C@H]3CN(c4ccc(C#N)c5nccnc45)C[C@@H](C)O3)CC2)n1` [Example 115, 8-[(2S,6R)-2-[[4-[4-[(3R,4S)-3-amino-4-fluoro-pyrrolidin-1-yl]-6-methyl-pyrimidin-2-yl]piperazin-1-yl]methyl]-6-methyl-morpholin-4-yl]quinoxaline-5-carbonitrile], the IC50 is 38 nM.
On to `C[C@@H]1CN(c2ccc(C#N)c3nccnc23)C[C@H](CN2CCN(c3nccc(N4CC(N)C4)n3)CC2)O1` [Example 118, 8-[(2S,6R)-2-[[4-[4-(3-aminoazetidin-1-yl)pyrimidin-2-yl]piperazin-1-yl]methyl]-6-methyl-morpholin-4-yl]quinoxaline-5-carbonitrile], for which the IC50 turned out to be 51 nM.
The same measure for `CO[C@@H]1CN(c2cc(C)nc(N3CCN(C[C@H]4CN(c5ccc(C#N)c6nccnc56)C[C@@H](C)O4)CC3)n2)C[C@@H]1N` [Example 120, 8-[(2S,6R)-2-[[4-[4-[(3S,4R)-3-amino-4-methoxy-pyrrolidin-1-yl]-6-methyl-pyrimidin-2-yl]piperazin-1-yl]methyl]-6-methyl-morpholin-4-yl]quinoxaline-5-carbonitrile]: 31 nM.
For `CO[C@@H]1CN(c2cc(C)nc(N3CCN(C[C@H]4CN(c5ccc(C#N)c6nccnc56)C[C@@H](C)O4)CC3)n2)C[C@H]1N` [Example 121, 8-[(2S,6R)-2-[[4-[4-[(3R,4R)-3-amino-4-methoxy-pyrrolidin-1-yl]-6-methyl-pyrimidin-2-yl]piperazin-1-yl]methyl]-6-methyl-morpholin-4-yl]quinoxaline-5-carbonitrile] the value was 44 nM; for `CO[C@H]1CN(c2cc(C)nc(N3CCN(C[C@H]4CN(c5ccc(C#N)c6nccnc56)C[C@@H](C)O4)CC3)n2)C[C@H]1N` [Example 122, 8-[(2S,6R)-2-[[4-[4-[(3R,4S)-3-amino-4-methoxy-pyrrolidin-1-yl]-6-methyl-pyrimidin-2-yl]piperazin-1-yl]methyl]-6-methyl-morpholin-4-yl]quinoxaline-5-carbonitrile], 31 nM; for `Cc1cc(N2CC(N)C2)nc(N2CCN(C[C@H]3CN(c4ccc(C#N)c5nccnc45)C[C@@H](C)O3)CC2)n1` [Example 123, 8-[(2S,6R)-2-[[4-[4-(3-aminoazetidin-1-yl)-6-methyl-pyrimidin-2-yl]piperazin-1-yl]methyl]-6-methyl-morpholin-4-yl]quinoxaline-5-carbonitrile], 31 nM.
`Cc1cc(N2C[C@@H](N)[C@](C)(O)C2)nc(N2CCN(C[C@H]3CN(c4ccc(C#N)c5nccnc45)C[C@@H](C)O3)CC2)n1` [Example 125, 8-[(2S,6R)-2-[[4-[4-[(3R,4R)-4-amino-3-hydroxy-3-methyl-pyrrolidin-1-yl]-6-methyl-pyrimidin-2-yl]piperazin-1-yl]methyl]-6-methyl-morpholin-4-yl]quinoxaline-5-carbonitrile]: the IC50 was 83 nM.
On to `Cc1ccc(N2C[C@H](CN3CCN(c4ccnc(N5CC6(CNCCO6)C5)n4)CC3)O[C@H](C)C2)c2nccnc12` [Example 126, 2-[4-[4-[[(2S,6R)-6-methyl-4-(8-methylquinoxalin-5-yl)morpholin-2-yl]methyl]piperazin-1-yl]pyrimidin-2-yl]-5-oxa-2,8-diazaspiro[3.5]nonane], for which the IC50 was 146 nM.
`Cc1ccc(N2C[C@H](CN3CCN(c4ccnc(N5CCN[C@@H](C)C5)n4)CC3)O[C@H](C)C2)c2nccnc12` [Example 127, (2R,6S)-2-methyl-6-[[4-[2-[(3S)-3-methylpiperazin-1-yl]pyrimidin-4-yl]piperazin-1-yl]methyl]-4-(8-methylquinoxalin-5-yl)morpholine]: the IC50 came to 149 nM.
On to `Cc1ccc(N2C[C@H](CN3CCN(c4ccnc(N5CCN[C@H](C)C5)n4)CC3)O[C@H](C)C2)c2nccnc12` [Example 128, (2R,6S)-2-methyl-6-[[4-[2-[(3R)-3-methylpiperazin-1-yl]pyrimidin-4-yl]piperazin-1-yl]methyl]-4-(8-methylquinoxalin-5-yl)morpholine], for which the IC50 was 182 nM.
For `Cc1ccc(N2C[C@H](CN3CCN(c4ccnc(N5C[C@H]6NCCO[C@@H]6C5)n4)CC3)O[C@H](C)C2)c2nccnc12` [Example 129, (4aR,7aR)-6-[4-[4-[[(2S,6R)-6-methyl-4-(8-methylquinoxalin-5-yl)morpholin-2-yl]methyl]piperazin-1-yl]pyrimidin-2-yl]-3,4,4a,5,7,7a-hexahydro-2H-pyrrolo[3,4-b][1,4]oxazine], the IC50 amounted to 171 nM.
Turning to `Cc1ccc(N2C[C@H](CN3CCN(c4ccnc(N5CC(N)C5)n4)CC3)O[C@H](C)C2)c2nccnc12` [Example 130, 1-[4-[4-[[(2S,6R)-6-methyl-4-(8-methylquinoxalin-5-yl)morpholin-2-yl]methyl]piperazin-1-yl]pyrimidin-2-yl]azetidin-3-amine], the IC50 amounted to 155 nM.
For `[2H]c1ccc2c(N3C[C@H](CN4CCN(c5nc(OC)cc(N6CC(C)(N)C6)n5)CC4)O[C@H](C)C3)ccc(C#N)c2n1` [Example 131, 5-[(2S,6R)-2-[[4-[4-(3-amino-3-methyl-azetidin-1-yl)-6-methoxy-pyrimidin-2-yl]piperazin-1-yl]methyl]-6-methyl-morpholin-4-yl]-2-deuterio-quinoline-8-carbonitrile], the IC50 is 113 nM.
For the compound `[2H]c1ccc2c(N3C[C@H](CN4CCN(c5cnc(N6CC(C)(N)C6)cc5C)CC4)O[C@H](C)C3)ccc(C#N)c2n1` [Example 133, 5-[(2S,6R)-2-[[4-[6-(3-amino-3-methyl-azetidin-1-yl)-4-methyl-3-pyridyl]piperazin-1-yl]methyl]-6-methyl-morpholin-4-yl]-2-deuterio-quinoline-8-carbonitrile], the IC50 was 68 nM.
Turning to `[2H]c1ccc2c(N3C[C@H](CN4CCN(c5nc(C)cc(N6CC(C)(N)C6)n5)CC4)O[C@H](C)C3)ccc(C#N)c2n1` [Example 135, 5-[(2S,6R)-2-[[4-[4-(3-amino-3-methyl-azetidin-1-yl)-6-methyl-pyrimidin-2-yl]piperazin-1-yl]methyl]-6-methyl-morpholin-4-yl]-2-deuterio-quinoline-8-carbonitrile], the IC50 came out at 56 nM.
For `[2H]c1ccc2c(N3C[C@H](CN4CCN(c5nc(C)cc(N6CC(N)C6)n5)CC4)O[C@H](C)C3)ccc(C#N)c2n1` [Example 136, 5-[(2S,6R)-2-[[4-[4-(3-aminoazetidin-1-yl)-6-methyl-pyrimidin-2-yl]piperazin-1-yl]methyl]-6-methyl-morpholin-4-yl]-2-deuterio-quinoline-8-carbonitrile] the value was 33 nM.
The same measure for `[2H]c1ccc2c(N3C[C@H](CN4CCN(c5ccc(N6CC(C)(N)C6)nc5C)CC4)O[C@H](C)C3)ccc(C#N)c2n1` [Example 137, 5-[(2S,6R)-2-[[4-[6-(3-amino-3-methyl-azetidin-1-yl)-2-methyl-3-pyridyl]piperazin-1-yl]methyl]-6-methyl-morpholin-4-yl]-2-deuterio-quinoline-8-carbonitrile]: 66 nM.

Source of the values: patent US20210395239A1 (Hoffmann-La Roche Inc., priority 2018, published 2021).
